Source: article PMC12466479, “The Supersulfide-Producing Activity of Rat Cystathionine γ-Lyase Is Irreversibly Inactivated by L-CysNO but Not by L-GSNO” (Antioxidants, 2025)
Each block holds one molecule with its values, some of them ahead of it.

Experiments:
[1] = molecular target: T1, Cystathionine γ-lyase (CSE) (Rattus norvegicus, UniProt P18757); assay: SSP4 fluorescence assay of Cys-SSH production from cystine after preincubation with L-CysNO; also a substrate (HSNO by TAP-1, pyruvate assay); assay type: biochemical; set-up: gene Cth; recombinant rat CSE expressed in E. coli as GST-CSE, GST tag cleaved
T1 sequence (P18757 whole entry): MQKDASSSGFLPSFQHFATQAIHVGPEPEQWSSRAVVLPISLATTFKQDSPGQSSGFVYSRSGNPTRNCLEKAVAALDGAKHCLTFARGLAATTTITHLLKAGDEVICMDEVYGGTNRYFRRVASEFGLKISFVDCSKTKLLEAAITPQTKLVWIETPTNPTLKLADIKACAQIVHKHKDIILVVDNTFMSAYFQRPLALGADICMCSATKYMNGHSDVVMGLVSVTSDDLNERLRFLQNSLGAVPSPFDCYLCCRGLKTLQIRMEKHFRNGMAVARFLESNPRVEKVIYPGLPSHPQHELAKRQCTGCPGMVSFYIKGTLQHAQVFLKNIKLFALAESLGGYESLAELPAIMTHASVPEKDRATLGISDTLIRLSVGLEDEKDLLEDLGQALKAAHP

[2] = molecular target: T1, Cystathionine γ-lyase (CSE); assay: TAP-1 assay of HSNO production from L-CysNO with or without […] PLP; assay type: biochemical; set-up: gene Cth; recombinant rat CSE, purified from E. coli
[3] = molecular target: T1, Cystathionine γ-lyase (CSE); set-up: gene Cth
[4] = molecular target: T1, Cystathionine γ-lyase (CSE); set-up: gene Cth; remark: listed apart in the source

- IC50 [1]: 10 µM
Structure (SMILES): N[C@@H](CSN=O)C(=O)O [L-CysNO, L-S-nitrosocysteine]

Structure (SMILES): Cc1ncc(COP(=O)(O)O)c(C=O)c1O [PLP, pyridoxal 5′-phosphate]
- TAP-1 assay of HSNO production from L-CysNO with or without 50 μM PLP [2]: The PLP-dependent β-lyase activity of CSE toward L-CysNO—but not D-CysNO—in producing HSNO was evident

Structure (SMILES): N[C@@H](CCSC[C@H](N)C(=O)O)C(=O)O [cystathionine]
- DTNB assay of cysteine formed from 1 mM cystathionine (γ-lyase activity) [3]: The cysteine produced by CSE from cystathionine was measured by DTNB assay

Structure (SMILES): N[C@@H](CSSC[C@H](N)C(=O)O)C(=O)O [cystine]
- SSP4 fluorescence assay of Cys-SSH formed from 1 mM cystine (β-lyase activity) [4]: The Cys-SSH produced by CSE with cystine as the substrate was measured by using SSP4
